PMC8047011, “Enantiomers of 2-methylglutamate and 2-methylglutamine selectively impact mouse brain metabolism and behavior” (Scientific Reports, 2021)
Where two headings read alike, the source gives them in different places.

Key:
human glutaminase GLS1 = target: T1, human glutaminase GLS1 (Homo sapiens, UniProt O94925); test: Catalysis of 2MeGln hydrolysis by GLS1 glutaminase; format: biochemical
T1 sequence (O94925 55-669): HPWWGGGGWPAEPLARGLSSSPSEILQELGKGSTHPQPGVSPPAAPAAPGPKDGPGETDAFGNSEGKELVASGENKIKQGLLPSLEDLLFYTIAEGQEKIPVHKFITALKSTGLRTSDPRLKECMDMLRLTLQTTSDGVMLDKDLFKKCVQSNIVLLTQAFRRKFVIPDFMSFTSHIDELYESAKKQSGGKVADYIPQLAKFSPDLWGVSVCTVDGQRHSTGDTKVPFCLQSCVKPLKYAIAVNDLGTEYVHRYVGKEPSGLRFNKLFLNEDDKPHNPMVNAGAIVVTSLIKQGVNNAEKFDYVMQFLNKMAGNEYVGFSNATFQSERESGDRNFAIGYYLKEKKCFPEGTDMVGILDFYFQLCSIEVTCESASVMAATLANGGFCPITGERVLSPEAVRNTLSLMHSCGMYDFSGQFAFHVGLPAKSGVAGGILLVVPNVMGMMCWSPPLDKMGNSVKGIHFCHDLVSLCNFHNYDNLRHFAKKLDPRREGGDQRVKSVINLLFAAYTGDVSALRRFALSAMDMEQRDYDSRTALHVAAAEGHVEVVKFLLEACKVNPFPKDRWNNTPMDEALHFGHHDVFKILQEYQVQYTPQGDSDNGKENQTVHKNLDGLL
Protocol: The procedure was adapted from an existing protocol. To a reaction mixture in a 1.5 mL microcentrifuge tube containing 10 mM rac-2MeGln or L-Gln-^13C2 in 100 mM phosphate pH 7.4 buffer made in 20% atom ^18O water, recombinant GLS1 (final concentration: 5 ng/mL) was added. The tubes were incubated in a preheated thermomixer at 37 °C and periodically shaken at 600 rpm (30 s on, 30 s off). 5 μL aliquots were collected in triplicate every 5 min and immediately diluted with 195 μL of cold 60% ACN containing 10 μM Glu-d5 and Gln-d5 as internal standards in a 96 well plate. After collecting all samples, the plate was shaken at 1000 rpm for 5 min at room temperature, and then stored at − 80 °C. Before analysis the plate was thawed and 10 μL aliquots of the extracted reaction mixtures were diluted with 190 μL of 90% acetonitrile.
The quantification of the newly formed 2MeGlu in the presence of the preexisting trace amounts was performed in the following way. Peak area ratio of Glu-^13C2 to Glu-^13C2^18O was calculated in all samples containing Glu-^13C2. The mean ratio value was then applied to calculate the hypothetical peak area of the newly formed 2MeGlu based on the directly measured 2MeGlu-^18O peak area. The ratio of the newly formed 2MeGlu peak area and the total 2MeGlu peak area was applied to calculate the concentration of the newly formed 2MeGlu from the total 2MeGlu concentration determined directly using the calibration curve.

AMPA nonspecific = test: Nonspecific AMPA binding assay; conditions: 100 μM, triplicate; rat
Protocol: Nonspecific AMPA, kainate and NMDA binding assays were performed by Eurofins Discovery
(Cerep) using rat cerebral cortex membranes and radiolabeled [3H]AMPA, [3H]kainic acid and
[3H]CGP 39653, respectively. […]

mGluR5 = target: T2, mGluR5 (Homo sapiens, UniProt P41594); test: mGluR5 radioligand binding assay; conditions: triplicate
T2 construct: purchased SB Drug Discovery (CNS discovery panel, FLIPR); Eurofins Discovery (Cerep)
Protocol: mGluR1, mGluR2, mGluR5 and GABAB binding assays were performed by Eurofins Discovery. […]
mGluR5 and GABAB binding assays were performed using recombinant CHO-K1 cells and
[3H]CGP-54626 and [3H]quisqalic acid, respectively. All compounds were tested at a single
concentration of 100 uM in triplicate. […]

GABAA α4β2γ2 = target: T3, GABAA α4β2γ2 (Homo sapiens, UniProt P47870+P48169); test: FLIPR functional receptor assay, GABAA α4β2γ2; format: cell-based; conditions: agonist mode; top test concentration 1 mM
T3 construct: host or cells: HEK 293
Protocol: intensity and lower number of tone and shock (2x) pairings to create a greater opportunity to observe pharmacologic activity.
Receptor functional & binding assays
Functional assays of all GABAA, NMDA (GluN2A–GluN2D) and AMPA (GluA2) receptor subunits were performed by SB Drug Discovery as a part of their CNS discovery panel using FLIPR technology. Briefly, receptor-expressing HEK 293 cell lines were incubated in a red membrane potential dye in HEPES:HBSS pH 7.4 buffer and the fluorescence (λex: 488, λex: 510–570) was monitored over time as the test compounds and/or reference compounds were added to the solution. In agonist assay, only test compounds were added. In positive allosteric modulator assay, cells were preincubated with test compounds and then low concentration (approximately EC20) of an appropriate agonist was added. In antagonist assay, cells were preincubated with test compounds and then high concentration (approximately EC80) of an appropriate agonist was added. For GABAA assays, GABA was used as the agonist, picrotoxin was used as the reference antagonist and allopregnanolone was used as the reference positive allosteric modulator (PAM). […] All compounds were tested at 7 concentration points in triplicate and EC50/IC50 was determined where applicable. […]

[1] = target: human glutamine synthetase (Homo sapiens, UniProt P15104); test: Catalysis of 2MeGlu C5-amidation by human glutamine synthetase; format: biochemical; conditions: 10 mM substrate, 5 ng/mL enzyme, ATP, NH4Cl
Protocol: The procedure was adapted from an existing protocol. To a reaction mixture in a 1.5 mL microcentrifuge tube containing 10 mM substrate, 10 mM ATP, 20 mM MgCl2, 40 mM NH4Cl, 25 mM 2-mercaptoethanol in 100 mM imidazole–HCl buffer pH 7.0, recombinant human glutamine synthetase (final concentration: 5 ng/mL) was added. The tubes were incubated in a preheated thermomixer at 37 °C and shaken at 600 rpm (30 s on, 30 s off). 5 μL aliquots were collected in triplicate every 5 min and immediately diluted with 195 μL of cold 60% ACN containing 10 μM Glu-d5 and Gln-d5 as internal standards in a 96 well plate. After collecting all samples, 200 μL of ACN was added to all wells and the plate was shaken at 1000 rpm for 5 min at room temperature, and then stored at − 80 °C until analysis.

[2] = read-out: % of radioligand binding inhibition, mGluR5 (first line of Table S4)
[3] = read-out: % of radioligand binding inhibition, mGluR5 (second line of Table S4)

T2 sequence (P41594 21-1212): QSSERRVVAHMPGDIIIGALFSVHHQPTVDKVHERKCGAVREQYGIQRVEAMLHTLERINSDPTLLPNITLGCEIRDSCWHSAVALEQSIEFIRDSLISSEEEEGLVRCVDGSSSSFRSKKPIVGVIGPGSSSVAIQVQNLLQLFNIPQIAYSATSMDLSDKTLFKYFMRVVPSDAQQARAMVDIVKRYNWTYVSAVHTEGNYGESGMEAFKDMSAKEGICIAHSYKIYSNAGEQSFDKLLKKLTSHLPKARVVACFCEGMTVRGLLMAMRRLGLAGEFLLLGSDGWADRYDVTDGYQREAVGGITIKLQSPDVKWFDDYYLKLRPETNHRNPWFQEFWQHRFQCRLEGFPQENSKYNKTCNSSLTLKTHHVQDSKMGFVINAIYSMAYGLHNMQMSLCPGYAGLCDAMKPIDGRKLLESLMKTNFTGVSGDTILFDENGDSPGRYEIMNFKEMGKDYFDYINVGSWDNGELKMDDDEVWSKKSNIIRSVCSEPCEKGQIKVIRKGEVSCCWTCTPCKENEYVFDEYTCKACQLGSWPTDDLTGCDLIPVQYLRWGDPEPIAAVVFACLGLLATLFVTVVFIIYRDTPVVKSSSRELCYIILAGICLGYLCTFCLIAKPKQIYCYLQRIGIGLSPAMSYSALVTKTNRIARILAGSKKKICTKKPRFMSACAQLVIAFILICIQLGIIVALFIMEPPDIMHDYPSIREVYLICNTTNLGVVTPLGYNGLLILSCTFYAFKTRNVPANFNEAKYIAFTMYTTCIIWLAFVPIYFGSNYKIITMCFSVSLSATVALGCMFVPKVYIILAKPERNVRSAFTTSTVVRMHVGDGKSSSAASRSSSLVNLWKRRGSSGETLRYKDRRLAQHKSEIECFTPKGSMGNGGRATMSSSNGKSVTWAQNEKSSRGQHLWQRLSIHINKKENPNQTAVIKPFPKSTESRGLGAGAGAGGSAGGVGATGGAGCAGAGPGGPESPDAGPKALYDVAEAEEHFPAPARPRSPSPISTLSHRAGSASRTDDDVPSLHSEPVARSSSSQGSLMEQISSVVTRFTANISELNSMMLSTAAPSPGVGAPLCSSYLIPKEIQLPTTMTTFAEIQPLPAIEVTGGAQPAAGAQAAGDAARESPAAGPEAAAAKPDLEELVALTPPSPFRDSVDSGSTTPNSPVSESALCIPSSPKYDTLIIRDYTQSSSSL
T3 sequence (P48169 36-554): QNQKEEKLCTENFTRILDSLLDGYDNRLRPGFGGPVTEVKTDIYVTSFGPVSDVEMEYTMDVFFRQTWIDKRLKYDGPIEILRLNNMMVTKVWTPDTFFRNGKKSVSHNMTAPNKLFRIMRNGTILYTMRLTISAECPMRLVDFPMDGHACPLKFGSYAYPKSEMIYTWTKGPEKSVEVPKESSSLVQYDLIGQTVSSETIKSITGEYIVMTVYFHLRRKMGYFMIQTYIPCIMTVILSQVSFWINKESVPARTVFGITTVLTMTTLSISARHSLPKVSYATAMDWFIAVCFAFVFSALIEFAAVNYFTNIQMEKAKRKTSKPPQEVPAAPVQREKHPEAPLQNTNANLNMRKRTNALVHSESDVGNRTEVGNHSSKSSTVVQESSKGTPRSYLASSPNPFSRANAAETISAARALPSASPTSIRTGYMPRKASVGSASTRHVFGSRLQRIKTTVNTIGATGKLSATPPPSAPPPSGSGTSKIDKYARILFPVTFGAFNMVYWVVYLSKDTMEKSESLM
T3 sequence (P47870 25-512 limits assumed): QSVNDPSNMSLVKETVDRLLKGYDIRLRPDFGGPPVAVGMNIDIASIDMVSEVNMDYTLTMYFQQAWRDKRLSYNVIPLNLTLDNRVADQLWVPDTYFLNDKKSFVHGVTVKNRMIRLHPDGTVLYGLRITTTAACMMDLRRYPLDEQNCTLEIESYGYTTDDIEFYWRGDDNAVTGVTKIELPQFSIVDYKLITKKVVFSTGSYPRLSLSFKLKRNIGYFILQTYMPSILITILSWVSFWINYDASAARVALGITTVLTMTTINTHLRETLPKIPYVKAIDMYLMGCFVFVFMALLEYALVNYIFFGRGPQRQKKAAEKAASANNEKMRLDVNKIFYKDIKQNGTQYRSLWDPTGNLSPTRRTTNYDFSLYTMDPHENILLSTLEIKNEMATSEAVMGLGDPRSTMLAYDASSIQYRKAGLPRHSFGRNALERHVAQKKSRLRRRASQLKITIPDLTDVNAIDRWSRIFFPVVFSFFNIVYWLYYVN
T3 sequence (P18507 40-475 partner): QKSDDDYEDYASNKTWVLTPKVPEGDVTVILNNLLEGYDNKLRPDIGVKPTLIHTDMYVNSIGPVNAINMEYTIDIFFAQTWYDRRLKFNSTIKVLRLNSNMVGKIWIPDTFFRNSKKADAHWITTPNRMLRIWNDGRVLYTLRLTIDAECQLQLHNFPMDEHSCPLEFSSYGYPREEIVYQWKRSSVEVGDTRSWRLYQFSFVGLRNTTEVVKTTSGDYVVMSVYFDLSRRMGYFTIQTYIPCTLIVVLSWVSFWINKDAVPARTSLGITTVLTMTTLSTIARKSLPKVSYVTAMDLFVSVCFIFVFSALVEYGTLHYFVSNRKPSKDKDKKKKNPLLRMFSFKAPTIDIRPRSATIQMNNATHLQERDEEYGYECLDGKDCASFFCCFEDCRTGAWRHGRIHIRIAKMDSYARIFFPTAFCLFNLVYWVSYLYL
Chain of human glutamine synthetase (P15104 whole entry): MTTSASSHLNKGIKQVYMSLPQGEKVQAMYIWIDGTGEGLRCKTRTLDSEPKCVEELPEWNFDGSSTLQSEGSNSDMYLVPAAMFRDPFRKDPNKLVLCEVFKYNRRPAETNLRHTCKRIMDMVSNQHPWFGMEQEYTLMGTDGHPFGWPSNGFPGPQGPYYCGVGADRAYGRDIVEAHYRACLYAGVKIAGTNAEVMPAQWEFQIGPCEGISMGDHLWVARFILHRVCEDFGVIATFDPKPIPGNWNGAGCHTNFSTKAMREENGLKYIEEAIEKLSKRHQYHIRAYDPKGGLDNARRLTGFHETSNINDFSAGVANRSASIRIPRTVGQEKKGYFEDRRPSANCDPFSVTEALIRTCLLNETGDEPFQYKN

Compound	Substrate for GLS1 (human glutaminase GLS1)	Apparent GLS1 reaction rate, fold lower compared to Gln (human glutaminase GLS1; 10 mM substrate)	Apparent reaction rate of GLS1 hydrolysis (human glutaminase GLS1; 10 mM substrate, 5 ng/mL enzyme, phosphate pH 7.4) [µM/min]	% of radioligand binding inhibition, AMPA nonspec (AMPA nonspecific) [%]	inhibition at 100 µM (mGluR5; [2]) [%]	inhibition at 100 µM (mGluR5; [3]) [%]	EC50 (GABAA α4β2γ2) [µM]	Substrate for glutamine synthetase (GS) [1]
CC(N)(CCC(N)=O)C(=O)O (racemic) [rac-2MeGln, rac-2-methylglutamine]	at least one enantiomer of 2MeGln is a substrate for human GLS1, albeit relatively slow	approximately 35 fold	1.9	–	–	–	–	–
C[C@@](N)(CCC(=O)O)C(=O)O [(R)-2MeGlu, (R)-2-methylglutamic acid]	–	–	–	15	-20	-2	> 1000	not a substrate for GS
C[C@](N)(CCC(=O)O)C(=O)O [(S)-2MeGlu, (S)-2-methylglutamic acid]	–	–	–	12	11	-4	> 1000	is a substrate for GS
